In ChEMBL document CHEMBL4261621, “Synthesis of enamino-2-oxindoles via conjugate addition between α-azido ketones and 3-alkenyl oxindoles: Cytotoxicity evaluation and apoptosis inducing studies” (Bioorg Med Chem Lett, 2018):
Active and inactive are the calls of the source. The calls are words filed in the database; no cut-off is given here.

Legend:
NCI-H460 [1] = assay: Induction of apoptosis in human NCI-H460 cells assessed as viable cells at 10 uM after 72 hrs by Annexin V-alexa fluor 488/propidium iodide staining based flow cytometry (reference value: 98.55%); type: functional; conditions: NCI-H460, 72 h, read-out: Activity
HCT-15 [2] = assay: Cytotoxicity against human HCT15 cells after 72 hrs by MTT assay; type: functional, cell-based; conditions: HCT-15, 72 h
NCI-H460 [3] = assay: Induction of apoptosis in human NCI-H460 cells assessed as necrotic cells at 10 uM after 72 hrs by Annexin V-alexa fluor 488/propidium iodide staining based flow cytometry (reference value: 0.34%); type: functional
MDA-MB-231 [4] = assay: Cytotoxicity against human MDA-MB-231 cells at 30 uM after 48 hrs by MTT assay relative to control; type: functional
NCI-H460 [5] = assay: Induction of apoptosis in human NCI-H460 cells assessed as early apoptotic cells at 10 uM after 72 hrs by Annexin V-alexa fluor 488/propidium iodide staining based flow cytometry (reference value: 0.77%); type: functional
NCI-H460 [6] = assay: Induction of mitochondrial membrane potential loss in human NCI-H460 cells assessed as depolarized cell population at 10 uM after 72 hrs by JC1 staining based flow cytometry (reference value: 11.63%); type: functional
HCT-116 = assay: Cytotoxicity against human HCT116 cells after 72 hrs by MTT assay; type: functional, cell-based; conditions: HCT-116, 72 h
NCI-H460 [7] = assay: Induction of apoptosis in human NCI-H460 cells assessed as necrotic cells at 2.5 uM after 72 hrs by Annexin V-alexa fluor 488/propidium iodide staining based flow cytometry (reference value: 0.34%); type: functional
NCI-H460 [8] = assay: Induction of apoptosis in human NCI-H460 cells assessed as early apoptotic cells at 2.5 uM after 72 hrs by Annexin V-alexa fluor 488/propidium iodide staining based flow cytometry (reference value: 0.77%); type: functional
NCI-H460 [9] = assay: Induction of apoptosis in human NCI-H460 cells assessed as late apoptotic cells at 2.5 uM after 72 hrs by Annexin V-alexa fluor 488/propidium iodide staining based flow cytometry (reference value: 0.34%); type: functional
NCI-H460 [10] = assay: Inhibition of colony formation in human NCI-H460 cells supplemented with fresh medium containing compounds every 3 days measured after 7 days by crystal violet staining based assay; type: functional, cell-based
NCI-H460 [11] = assay: Cell cycle arrest in human NCI-H460 cells assessed as accumulation at sub-G1 phase at 5 uM after 24 hrs by propidium iodide staining based flow cytometry (reference value: 0.99%); type: functional
NCI-H460 [12] = assay: Induction of morphological changes in human NCI-H460 cells assessed as cell shrinkage after 72 hrs by phase contrast microscopic analysis; type: functional, cell-based
NCI-H460 [13] = assay: Induction of apoptosis in human NCI-H460 cells assessed as necrotic cells at 1 uM after 72 hrs by Annexin V-alexa fluor 488/propidium iodide staining based flow cytometry (reference value: 0.34%); type: functional
NCI-H460 [14] = assay: Cell cycle arrest in human NCI-H460 cells assessed as accumulation at sub-G1 phase at 10 uM after 24 hrs by propidium iodide staining based flow cytometry (reference value: 0.99%); type: functional
MDA-MB-231 [15] = assay: Cytotoxicity against human MDA-MB-231 cells after 72 hrs by MTT assay; type: functional, cell-based; conditions: MDA-MB-231, 72 h
NCI-H460 [16] = assay: Induction of apoptosis in human NCI-H460 cells assessed as increase in early apoptotic cells after 72 hrs by Annexin V-alexa fluor 488/propidium iodide staining based flow cytometry; type: functional, cell-based
NCI-H460 [17] = assay: Induction of apoptosis in human NCI-H460 cells assessed as chromatin condensation at 0.25 to 10 uM after 72 hrs by acridine orange/ethidium bromide staining based fluorescence microscopic analysis; type: functional, cell-based
NCI-H460 [18] = assay: Induction of apoptosis in human NCI-H460 cells assessed as increase in late apoptotic cells after 72 hrs by Annexin V-alexa fluor 488/propidium iodide staining based flow cytometry; type: functional, cell-based
NCI-H460 [19] = assay: Induction of apoptosis in human NCI-H460 cells assessed as apoptotic body formation at 0.25 to 10 uM after 72 hrs by acridine orange/ethidium bromide staining based fluorescence microscopic analysis; type: functional, cell-based
NCI-H460 [20] = assay: Cell cycle arrest in human NCI-H460 cells assessed as accumulation at sub-G1 phase at 1 uM after 24 hrs by propidium iodide staining based flow cytometry (reference value: 0.99%); type: functional
NCI-H460 [21] = assay: Cell cycle arrest in human NCI-H460 cells assessed as accumulation at G0/G1 phase at 2.5 uM after 24 hrs by propidium iodide staining based flow cytometry (reference value: 49.6%); type: functional
HCT-15 [22] = assay: Cytotoxicity against human HCT15 cells at 30 uM after 48 hrs by MTT assay relative to control; type: functional
NCI-H460 [23] = assay: Induction of apoptosis in human NCI-H460 cells assessed as necrotic cells at 5 uM after 72 hrs by Annexin V-alexa fluor 488/propidium iodide staining based flow cytometry (reference value: 0.34%); type: functional
NCI-H460 [24] = assay: Induction of apoptosis in human NCI-H460 cells assessed as viable cells at 5 uM after 72 hrs by Annexin V-alexa fluor 488/propidium iodide staining based flow cytometry (reference value: 98.55%); type: functional; conditions: NCI-H460, 72 h, read-out: Activity
NCI-H460 [25] = assay: Cell cycle arrest in human NCI-H460 cells assessed as accumulation at S phase at 2.5 uM after 24 hrs by propidium iodide staining based flow cytometry (reference value: 9.93%); type: functional
A549 [26] = assay: Cytotoxicity against human A549 cells after 72 hrs by MTT assay; type: functional, cell-based; conditions: A549, 72 h
NCI-H460 [27] = assay: Cell cycle arrest in human NCI-H460 cells assessed as accumulation at G2/M phase at 5 uM after 24 hrs by propidium iodide staining based flow cytometry (reference value: 35.49%); type: functional
NCI-H460 [28] = assay: Induction of apoptosis in human NCI-H460 cells assessed as early apoptotic cells at 5 uM after 72 hrs by Annexin V-alexa fluor 488/propidium iodide staining based flow cytometry (reference value: 0.77%); type: functional
NCI-H460 [29] = assay: Induction of apoptosis in human NCI-H460 cells assessed as membrane blebbing at 0.25 to 10 uM after 72 hrs by acridine orange/ethidium bromide staining based fluorescence microscopic analysis; type: functional, cell-based
NCI-H460 [30] = assay: Cytotoxicity against human NCI-H460 cells assessed as reduction in cell viability after 72 hrs by phase contrast microscopic analysis; type: functional, cell-based
NCI-H460 [31] = assay: Induction of reactive oxygen species generation in human NCI-H460 cells after 24 hrs by DCFDA staining based fluorescence microscopic analysis; type: functional, cell-based
NCI-H460 [32] = assay: Induction of morphological changes in human NCI-H460 cells assessed as cell detachment after 72 hrs by phase contrast microscopic analysis; type: functional, cell-based
HeLa = assay: Cytotoxicity against human HeLa cells at 30 uM after 48 hrs by MTT assay relative to control; type: functional
A549 [33] = assay: Cytotoxicity against human A549 cells at 30 uM after 48 hrs by MTT assay relative to control; type: functional
NCI-H460 [34] = assay: Cell cycle arrest in human NCI-H460 cells assessed as accumulation at G2/M phase at 10 uM after 24 hrs by propidium iodide staining based flow cytometry (reference value: 35.49%); type: functional
NCI-H460 [35] = assay: Induction of apoptosis in human NCI-H460 cells assessed as reduction in cell number at 0.25 to 10 uM after 72 hrs by acridine orange/ethidium bromide staining based fluorescence microscopic analysis; type: functional
NCI-H460 [36] = assay: Cell cycle arrest in human NCI-H460 cells assessed as accumulation at G2/M phase at 1 uM after 24 hrs by propidium iodide staining based flow cytometry (reference value: 35.49%); type: functional

CCOC(=O)/C(=C(\N)C(=O)c1ccccc1)C1C(=O)N(C)c2ccc(F)cc21 (stereo not drawn)
viability at 10 µM (NCI-H460 [1]): 40.4%
IC50 (HCT-15 [2]): 2.97 µM
Activity (NCI-H460 [3]): 0.03%
Activity (MDA-MB-231 [4]): >50%
Activity (NCI-H460 [5]): 57.78%
Activity (NCI-H460 [6]): 90.49%
IC50 (HCT-116): 5.14 µM
Activity (NCI-H460 [7]): 0.34%
Activity (NCI-H460 [8]): 19.4%
Activity (NCI-H460 [9]): 4.4%
inhibition (NCI-H460 [10]): Dose-dependent effect
Activity (NCI-H460 [11]): 11.94%
Activity (NCI-H460 [12]): Dose-dependent effect
Activity (NCI-H460 [13]): 0.24%
Activity (NCI-H460 [14]): 11.66%
IC50 (MDA-MB-231 [15]): 6.27 µM
Activity (NCI-H460 [16]): Dose-dependent effect
Activity (NCI-H460 [17]): Active
Activity (NCI-H460 [18]): Dose-dependent effect
Activity (NCI-H460 [19]): Active
Activity (NCI-H460 [20]): 9.93%
Activity (NCI-H460 [21]): 9.73%
Activity (HCT-15 [22]): >50%
Activity (NCI-H460 [23]): 0.21%
viability at 5 µM (NCI-H460 [24]): 61.1%
Activity (NCI-H460 [25]): 64.98%
IC50 (A549 [26]): 3.51 µM
Activity (NCI-H460 [27]): 65.46%
Activity (NCI-H460 [28]): 35.42%
Activity (NCI-H460 [29]): Active
Activity (NCI-H460 [30]): Dose-dependent effect
Activity (NCI-H460 [31]): Dose-dependent effect
Activity (NCI-H460 [32]): Dose-dependent effect
Activity (HeLa): >50%
Activity (A549 [33]): >50%
Activity (NCI-H460 [34]): 67.37%
Activity (NCI-H460 [35]): Active
Activity (NCI-H460 [36]): 61.59%
